Consider 20 molecules from US20240109917A1 (ACTELION PHARMACEUTICALS LTD, priority 2020, published 2024).

The target of assay [1] is His6-TEV-PDGFRβ (557-1016) (Homo sapiens (Human), UniProt P09619). Put plainly: PDGFRβ HTRF Assay. It is filed as biochemical. To be noted: read-out: PDGFR HTRF IC50. The method in brief:
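Human PDGFRβ (557-1016) pre-incubated with compound for 30 min at RT in pH 7.5 HEPES/MgCl2/EGTA/Brij-35/DTT buffer. Reaction started with ATP and TK-biotin peptide, run 3 h at RT, then quenched with EDTA-containing Eu-cryptate antibody/streptavidin-XL665. HTRF 665/620 nm ratio read after 60 min; percent inhibition relative to DMSO and 10 μM imatinib controls.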
(TR-FRET usually uses a lanthanide donor and a delayed reading to cut background.)

Assay [2] concerns the target Tb-labeled inactive PDGFRβ (Homo sapiens (Human), UniProt P09619). Put plainly: PDGFRβ LanthaScreen Assay. It is filed as binding. To be noted: read-out: PDGFR Lantha IC50.
A further assay addresses PDGFRβ (Rattus norvegicus (Rat), UniProt Q05030). The assay can be described thus: PDGFRβ Cellular Assay (PDGFRb P-Y751 HTRF in A10 cells stimulated with PDGF-BB). The assay is classed as cell-based. Summed up: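 Rat A10 cells, plated overnight, were treated with compound for 3 hours, then stimulated with PDGF-BB (working stock 100 ng/mL in 10% FBS medium). After lysis, PDGFRβ P-Y751 was detected by HTRF.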

Read-outs that look alike come from different tables or passages of the source.

Tb-labeled inactive PDGFRβ, sequence (P09619 33-1106): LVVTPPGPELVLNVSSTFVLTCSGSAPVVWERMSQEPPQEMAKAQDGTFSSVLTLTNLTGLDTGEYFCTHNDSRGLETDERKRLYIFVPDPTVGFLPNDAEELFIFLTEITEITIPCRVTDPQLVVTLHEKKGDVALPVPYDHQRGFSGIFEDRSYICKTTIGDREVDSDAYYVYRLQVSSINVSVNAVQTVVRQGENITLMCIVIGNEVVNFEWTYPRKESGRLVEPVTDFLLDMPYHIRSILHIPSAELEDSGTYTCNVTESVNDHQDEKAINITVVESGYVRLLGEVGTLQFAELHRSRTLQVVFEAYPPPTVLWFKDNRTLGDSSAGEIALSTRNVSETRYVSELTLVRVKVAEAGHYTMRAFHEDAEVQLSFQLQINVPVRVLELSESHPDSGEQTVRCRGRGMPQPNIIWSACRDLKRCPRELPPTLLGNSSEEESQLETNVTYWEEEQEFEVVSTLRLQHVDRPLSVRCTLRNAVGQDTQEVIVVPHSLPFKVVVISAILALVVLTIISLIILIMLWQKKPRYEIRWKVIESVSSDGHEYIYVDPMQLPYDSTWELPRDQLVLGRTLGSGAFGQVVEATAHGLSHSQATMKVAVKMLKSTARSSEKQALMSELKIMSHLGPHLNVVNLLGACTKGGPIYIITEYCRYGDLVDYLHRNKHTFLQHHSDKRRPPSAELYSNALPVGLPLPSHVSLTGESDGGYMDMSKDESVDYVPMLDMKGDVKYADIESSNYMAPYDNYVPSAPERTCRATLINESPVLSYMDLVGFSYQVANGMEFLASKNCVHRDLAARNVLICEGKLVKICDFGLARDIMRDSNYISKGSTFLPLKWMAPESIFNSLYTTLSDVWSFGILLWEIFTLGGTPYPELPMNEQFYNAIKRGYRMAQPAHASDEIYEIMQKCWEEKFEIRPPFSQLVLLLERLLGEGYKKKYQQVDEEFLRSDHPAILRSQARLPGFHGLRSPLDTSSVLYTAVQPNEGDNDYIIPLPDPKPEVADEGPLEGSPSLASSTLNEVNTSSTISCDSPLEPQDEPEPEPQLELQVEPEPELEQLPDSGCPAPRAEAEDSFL
PDGFRβ, sequence (Q05030 32-1097): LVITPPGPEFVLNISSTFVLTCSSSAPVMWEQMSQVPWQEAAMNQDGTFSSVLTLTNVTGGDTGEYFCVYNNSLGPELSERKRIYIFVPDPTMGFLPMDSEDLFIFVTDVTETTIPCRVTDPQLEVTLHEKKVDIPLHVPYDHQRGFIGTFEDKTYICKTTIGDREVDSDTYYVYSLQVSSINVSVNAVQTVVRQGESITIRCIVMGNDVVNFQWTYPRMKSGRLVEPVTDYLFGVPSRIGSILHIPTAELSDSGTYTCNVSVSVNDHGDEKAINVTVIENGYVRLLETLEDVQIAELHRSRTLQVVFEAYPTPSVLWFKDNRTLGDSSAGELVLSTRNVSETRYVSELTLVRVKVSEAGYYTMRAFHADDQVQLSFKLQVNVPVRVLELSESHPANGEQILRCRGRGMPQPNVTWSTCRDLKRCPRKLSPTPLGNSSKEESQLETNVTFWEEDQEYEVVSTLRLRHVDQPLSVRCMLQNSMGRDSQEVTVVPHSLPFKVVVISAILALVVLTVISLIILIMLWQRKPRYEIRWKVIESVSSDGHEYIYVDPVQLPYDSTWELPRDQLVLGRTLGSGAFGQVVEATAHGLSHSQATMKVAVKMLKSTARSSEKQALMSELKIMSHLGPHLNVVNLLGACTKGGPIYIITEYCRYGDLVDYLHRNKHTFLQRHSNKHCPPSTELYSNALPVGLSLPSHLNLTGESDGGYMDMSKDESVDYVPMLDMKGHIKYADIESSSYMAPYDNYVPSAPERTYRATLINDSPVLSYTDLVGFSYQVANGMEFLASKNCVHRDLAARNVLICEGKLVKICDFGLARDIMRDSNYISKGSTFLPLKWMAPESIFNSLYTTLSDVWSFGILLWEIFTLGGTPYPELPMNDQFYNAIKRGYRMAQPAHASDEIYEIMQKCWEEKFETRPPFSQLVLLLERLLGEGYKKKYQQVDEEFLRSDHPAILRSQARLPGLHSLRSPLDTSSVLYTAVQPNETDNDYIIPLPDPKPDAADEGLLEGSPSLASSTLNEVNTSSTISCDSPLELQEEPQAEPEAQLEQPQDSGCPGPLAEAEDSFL
His6-TEV-PDGFRβ (557-1016), sequence (P09619 557-1016): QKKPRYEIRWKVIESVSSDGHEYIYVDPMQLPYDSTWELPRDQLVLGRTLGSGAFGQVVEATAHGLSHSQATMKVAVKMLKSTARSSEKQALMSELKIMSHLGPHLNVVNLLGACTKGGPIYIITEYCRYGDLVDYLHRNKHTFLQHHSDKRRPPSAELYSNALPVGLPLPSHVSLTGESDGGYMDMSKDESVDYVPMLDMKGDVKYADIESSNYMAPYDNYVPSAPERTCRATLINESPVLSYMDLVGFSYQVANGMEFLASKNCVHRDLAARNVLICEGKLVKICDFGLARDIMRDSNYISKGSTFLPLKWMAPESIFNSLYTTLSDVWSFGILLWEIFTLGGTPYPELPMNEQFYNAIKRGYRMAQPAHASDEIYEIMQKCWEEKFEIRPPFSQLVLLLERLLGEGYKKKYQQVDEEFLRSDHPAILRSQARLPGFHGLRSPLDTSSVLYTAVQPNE

As for `COCC1CCCN1CC(=O)Nc1cnc(C)c(NC(=O)c2cnn3cc(-c4cnn(C)c4)sc23)c1` (stereo not drawn) [Example 79, N-(5-(2-(2-(methoxymethyl)pyrrolidin-1-yl)acetamido)-2-methylpyridin-3-yl)-2-(1-methyl-1H-pyrazol-4-yl)pyrazolo[5,1-b]thiazole-7-carboxamide], the IC50 (as a rule, the concentration at which inhibition is half-maximal) in assay [1] worked out at 0.8 nM; in assay [2] it was 10.9 nM; at PDGFRβ (read-out: PDGFR Cellular IC50) it was 12.6 nM.
Regarding `Cc1ncc(NC(=O)CN2CCCOCC2)cc1NC(=O)c1cnn2cc(-c3cnn(C)c3)sc12` [Example 80, N-(5-(2-(1,4-oxazepan-4-yl)acetamido)-2-methylpyridin-3-yl)-2-(1-methyl-1H-pyrazol-4-yl)pyrazolo[5,1-b]thiazole-7-carboxamide], the IC50 was 1.4 nM in assay [1], 19.3 nM in assay [2] and 37.8 nM on PDGFRβ (read-out: PDGFR Cellular IC50).
Take `Cc1ncc(NC(=O)CN2CCC3(CCO3)CC2)cc1NC(=O)c1cnn2cc(-c3cnn(C)c3)sc12` [Example 81, N-(5-(2-(1-oxa-7-azaspiro[3.5]nonan-7-yl)acetamido)-2-methylpyridin-3-yl)-2-(1-methyl-1H-pyrazol-4-yl)pyrazolo[5,1-b]thiazole-7-carboxamide]: the IC50 came to 2.8 nM in assay [1], 76.8 nM in assay [2] and 79.8 nM at PDGFRβ (read-out: PDGFR Cellular IC50).
As to `Cc1ncc(NC(=O)CN2CCC2(C)C)cc1NC(=O)c1cnn2cc(-c3cnn(C)c3)sc12` [Example 82, N-(5-(2-(2,2-dimethylazetidin-1-yl)acetamido)-2-methylpyridin-3-yl)-2-(1-methyl-1H-pyrazol-4-yl)pyrazolo[5,1-b]thiazole-7-carboxamide], the half-inhibitory concentration (IC50) in assay [1] is 1.6 nM; in assay [2], 24.3 nM; at PDGFRβ (read-out: PDGFR Cellular IC50), 12.5 nM.
Taken in the same sequence, the figures for `COC1CCN(CC(=O)Nc2cnc(C)c(NC(=O)c3cnn4cc(-c5cnn(C)c5)sc34)c2)CC1` [Example 83, N-(5-(2-(4-methoxypiperidin-1-yl)acetamido)-2-methylpyridin-3-yl)-2-(1-methyl-1H-pyrazol-4-yl)pyrazolo[5,1-b]thiazole-7-carboxamide] were 2.3 nM, 35 nM and 44.1 nM.
For `Cc1ncc(NC(=O)CN2CCC[C@@H]2C)cc1NC(=O)c1cnn2cc(-c3cnn(CCO)c3)sc12` [Example 84, (S)-2-(1-(2-hydroxyethyl)-1H-pyrazol-4-yl)-N-(2-methyl-5-(2-(2-methylpyrrolidin-1-yl)acetamido)pyridin-3-yl)pyrazolo[5,1-b]thiazole-7-carboxamide], in that order: 0.9 nM, 10.9 nM and 40.2 nM.
Take `Cc1ncc(NC(=O)CN2CCCCC23CC3)cc1NC(=O)c1cnn2cc(-c3cnn(CCO)c3)sc12` [Example 86, N-(5-(2-(4-azaspiro[2.5]octan-4-yl)acetamido)-2-methylpyridin-3-yl)-2-(1-(2-hydroxyethyl)-1H-pyrazol-4-yl)pyrazolo[5,1-b]thiazole-7-carboxamide]: the IC50 in assay [1] came out at 1.3 nM; in assay [2] it was 7.3 nM; at PDGFRβ (read-out: PDGFR Cellular IC50) it was 18.4 nM.
Consider `Cc1ncc(NC(=O)CN2CCCC23CC3)cc1NC(=O)c1cnn2cc(-c3cnn(CCO)c3)sc12` [Example 87, N-(5-(2-(4-azaspiro[2.4]heptan-4-yl)acetamido)-2-methylpyridin-3-yl)-2-(1-(2-hydroxyethyl)-1H-pyrazol-4-yl)pyrazolo[5,1-b]thiazole-7-carboxamide], for which the 50% inhibitory concentration (IC50) in assay [1] turned out to be 0.4 nM; in assay [2], 3.2 nM; on PDGFRβ (read-out: PDGFR Cellular IC50), 1 nM.
For `Cc1ncc(NC(=O)CCN2CCCC2(C)C)cc1NC(=O)c1cnn2cc(-c3cnn(CCO)c3)sc12` [Example 88, N-(5-(3-(2,2-dimethylpyrrolidin-1-yl)propanamido)-2-methylpyridin-3-yl)-2-(1-(2-hydroxyethyl)-1H-pyrazol-4-yl)pyrazolo[5,1-b]thiazole-7-carboxamide], the values for the IC50 (in assay [1]; in assay [2]; on PDGFRβ (read-out: PDGFR Cellular IC50)) were 0.4 nM, 4.2 nM and 141 nM, respectively.
For `COCCn1cc(-c2cn3ncc(C(=O)Nc4cc(NC(=O)CCN5CCC(C)(C)C5)cnc4C)c3s2)cn1` [Example 89, N-(5-(3-(3,3-dimethylpyrrolidin-1-yl)propanamido)-2-methylpyridin-3-yl)-2-(1-(2-methoxyethyl)-1H-pyrazol-4-yl)pyrazolo[5,1-b]thiazole-7-carboxamide], in that order: 0.6 nM, 12.7 nM and 26.2 nM.
In the case of `COCCn1cc(-c2cn3ncc(C(=O)Nc4cc(NC(=O)CCN5CCC6(CCC6)C5)cnc4C)c3s2)cn1` [Example 90, N-(5-(3-(6-azaspiro[3.4]octan-6-yl)propanamido)-2-methylpyridin-3-yl)-2-(1-(2-methoxyethyl)-1H-pyrazol-4-yl)pyrazolo[5,1-b]thiazole-7-carboxamide], the results for the IC50 (in assay [1]; in assay [2]; at PDGFRβ (read-out: PDGFR Cellular IC50)) were 0.5 nM, 10.6 nM and 19.9 nM, respectively.
Turning to `COCCn1cc(-c2cn3ncc(C(=O)Nc4cc(NC(=O)CCN5CCC6(CC6)C5)cnc4C)c3s2)cn1` [Example 91, N-(5-(3-(5-azaspiro[2.4]heptan-5-yl)propanamido)-2-methylpyridin-3-yl)-2-(1-(2-methoxyethyl)-1H-pyrazol-4-yl)pyrazolo[5,1-b]thiazole-7-carboxamide], the IC50 in assay [1] worked out at 0.5 nM; in assay [2], 13.2 nM; on PDGFRβ (read-out: PDGFR Cellular IC50), 36.4 nM.
Taken in the same sequence, the figures for `COCCn1cc(-c2cn3ncc(C(=O)Nc4cc(NC(=O)CCN5C[C@@H]6CC[C@H]5C6)cnc4C)c3s2)cn1` [Example 92, N-(5-(3-((1S,4R)-2-azabicyclo[2.2.1]heptan-2-yl)propanamido)-2-methylpyridin-3-yl)-2-(1-(2-methoxyethyl)-1H-pyrazol-4-yl)pyrazolo[5,1-b]thiazole-7-carboxamide] were 0.5 nM, 7.2 nM and 122 nM.
As to `COCCn1cc(-c2cn3ncc(C(=O)Nc4cc(NC(=O)CCN5CC(C)(C)C5)cnc4C)c3s2)cn1` [Example 93, N-(5-(3-(3,3-dimethylazetidin-1-yl)propanamido)-2-methylpyridin-3-yl)-2-(1-(2-methoxyethyl)-1H-pyrazol-4-yl)pyrazolo[5,1-b]thiazole-7-carboxamide], the concentration for half-maximal inhibition (IC50) is 0.9 nM in assay [1], 29.1 nM in assay [2] and 66 nM on PDGFRβ (read-out: PDGFR Cellular IC50).
For `COCCn1cc(-c2cn3ncc(C(=O)Nc4cc(NC(=O)CCN5C[C@H]6CC[C@@H]5C6)cnc4C)c3s2)cn1` [Example 94, N-(5-(3-((1R,4S)-2-azabicyclo[2.2.1]heptan-2-yl)propanamido)-2-methylpyridin-3-yl)-2-(1-(2-methoxyethyl)-1H-pyrazol-4-yl)pyrazolo[5,1-b]thiazole-7-carboxamide], in that order: 0.5 nM, 14.2 nM and 143 nM.
For the molecule `Cc1ncc(C(=O)NCCN2CCCC2(C)C)cc1NC(=O)c1cnn2cc(-c3ccnc(N4CCOCC4)c3)sc12` [Example 483, N-(5-((2-(2,2-dimethylpyrrolidin-1-yl)ethyl)carbamoyl)-2-methylpyridin-3-yl)-2-(2-morpholinopyridin-4-yl)pyrazolo[5,1-b]thiazole-7-carboxamide], the IC50 worked out at 0.3 nM in assay [1], 2.1 nM in assay [2] and 17.7 nM at PDGFRβ (PDGFR Cellular IC50).
On to `Cc1ncc(C(=O)NCCN2CC3CCC2CC3)cc1NC(=O)c1cnn2cc(-c3ccnc(N4CCOCC4)c3)sc12` [Example 484, N-(5-((2-(2-azabicyclo[2.2.2]octan-2-yl)ethyl)carbamoyl)-2-methylpyridin-3-yl)-2-(2-morpholinopyridin-4-yl)pyrazolo[5,1-b]thiazole-7-carboxamide], for which the values for the IC50 (in assay [1]; in assay [2]; on PDGFRβ (read-out: PDGFR Cellular IC50)) were 0.2 nM, 1.4 nM and 44.1 nM, respectively.
Turning to `COCCn1cc(-c2cn3ncc(C(=O)Nc4cc(NC(=O)C[C@H]5CCCN5C(C)C)cnc4C)c3s2)cn1` [Example 485, (R)—N-(5-(2-(1-isopropylpyrrolidin-2-yl)acetamido)-2-methylpyridin-3-yl)-2-(1-(2-methoxyethyl)-1H-pyrazol-4-yl)pyrazolo[5,1-b]thiazole-7-carboxamide], the half-inhibitory concentration (IC50) in assay [1] was determined as 0.8 nM; in assay [2] it was 16.3 nM; at PDGFRβ (read-out: PDGFR Cellular IC50) it was 34.4 nM.
For the molecule `COCCn1cc(-c2cn3ncc(C(=O)Nc4cc(NC(=O)C[C@H]5CCN(C(C)C)C5)cnc4C)c3s2)cn1` [Example 486, (R)—N-(5-(2-(1-isopropylpyrrolidin-3-yl)acetamido)-2-methylpyridin-3-yl)-2-(1-(2-methoxyethyl)-1H-pyrazol-4-yl)pyrazolo[5,1-b]thiazole-7-carboxamide], the IC50 amounted to 2.6 nM in assay [1], 127 nM in assay [2] and 2000 nM at PDGFRβ (read-out: PDGFR Cellular IC50).
As for `COCCn1cc(-c2cn3ncc(C(=O)Nc4cc(NC(=O)C5(CN6CCCC6(C)C)CC5)cnc4C)c3s2)cn1` [Example 487, N-(5-(1-((2,2-dimethylpyrrolidin-1-yl)methyl)cyclopropane-carboxamido)-2-methylpyridin-3-yl)-2-(1-(2-methoxyethyl)-1H-pyrazol-4-yl)pyrazolo[5,1-b]thiazole-7-carboxamide], the IC50 worked out at 7.7 nM in assay [1], 197 nM in assay [2] and 42.6 nM at PDGFRβ (read-out: PDGFR Cellular IC50).
